Consider 3 molecules from US20230167103A1 (Bayer Aktiengesellschaft, priority 2020, published 2023).

The test deals with T1, human DGKζ (Homo sapiens, UniProt Q13574).
T1 construct: made in house; host or cells: Sf9 insect cells, baculovirus
As to the kind of experiment: Human DGKζ kinase activity inhibition assay (ADP-Glo). Particulars: example compounds; recombinant full-length human DGKζ, 1,2-dioleoyl-sn-glycerol 7 μM, ATP 55 μM, 20 min at 22° C.; read-out: IC50 values of examples in in vitro human DGKζ kinase activity inhibition assays. The format is biochemical. In short, it runs like this:
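Enzyme was C-terminally FLAG-tagged full-length human DGKζ from baculovirus-infected insect cells, typically about 0.1 nM, with 1,2-dioleoyl-sn-glycerol in octyl-β-D-glucopyranoside micelles as substrate. ADP formed was detected by ADP-Glo luminescence; data normalised to no-inhibitor (0%) and no-enzyme (100%) controls.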

T1 sequence (Q13574 with tags, fused parts or gaps): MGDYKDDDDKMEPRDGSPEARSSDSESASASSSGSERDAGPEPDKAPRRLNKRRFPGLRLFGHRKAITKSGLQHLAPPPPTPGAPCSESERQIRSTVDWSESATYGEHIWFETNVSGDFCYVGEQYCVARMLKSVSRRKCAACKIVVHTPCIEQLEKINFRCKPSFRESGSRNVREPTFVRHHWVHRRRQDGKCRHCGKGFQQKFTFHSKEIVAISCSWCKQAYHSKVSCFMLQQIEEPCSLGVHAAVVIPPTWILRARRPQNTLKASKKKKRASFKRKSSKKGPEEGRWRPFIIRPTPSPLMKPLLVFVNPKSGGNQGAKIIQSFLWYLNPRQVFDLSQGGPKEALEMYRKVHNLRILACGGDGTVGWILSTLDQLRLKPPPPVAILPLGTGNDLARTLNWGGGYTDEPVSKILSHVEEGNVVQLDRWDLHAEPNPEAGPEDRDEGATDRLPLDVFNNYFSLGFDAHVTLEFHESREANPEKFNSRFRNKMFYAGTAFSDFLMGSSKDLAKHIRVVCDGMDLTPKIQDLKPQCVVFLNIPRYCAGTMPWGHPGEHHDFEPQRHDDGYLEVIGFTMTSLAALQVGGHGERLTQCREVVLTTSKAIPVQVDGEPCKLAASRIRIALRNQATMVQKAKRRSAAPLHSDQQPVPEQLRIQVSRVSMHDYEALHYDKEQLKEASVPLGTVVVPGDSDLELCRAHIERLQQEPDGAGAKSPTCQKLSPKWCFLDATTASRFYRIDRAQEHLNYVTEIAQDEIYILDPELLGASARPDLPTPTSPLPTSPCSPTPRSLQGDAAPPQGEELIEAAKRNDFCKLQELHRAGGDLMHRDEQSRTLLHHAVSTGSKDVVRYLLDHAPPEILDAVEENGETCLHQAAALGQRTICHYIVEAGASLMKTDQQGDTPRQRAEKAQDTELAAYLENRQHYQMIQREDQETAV

Take `CC(C(N)=O)N(c1ccc(F)cc1)c1nc(N)c(C(=O)c2cc(OC3CCC(F)(F)CC3)no2)s1` (racemic) [Example 81, rac-2-(N-[4-Amino-5-[3-(4,4-difluorocyclohexoxy)isoxazole-5-carbonyl]thiazol-2-yl]-4-fluoro-anilino)propanamide]: the IC50 came out at 17 nM.

`Cc1noc(C(=O)c2sc(N(c3ccc(F)cc3)C(C)C(N)=O)nc2N)n1` (racemic) [Example 52, rac-2-(N-[4-amino-5-(3-methyl-1,2,4-oxadiazole-5-carbonyl)thiazol-2-yl]-4-fluoro-anilino)propanamide]: the IC50 came to 412 nM. Then `CC(C(N)=O)N(c1ccc(F)cc1)c1nc(N)c(C(=O)c2cc(CN3CCC(F)(F)CC3)no2)s1` (racemic) [Example 75, rac-2-(N-[4-amino-5-[3-[(4,4-difluoro-1-piperidyl)methyl]isoxazole-5-carbonyl]thiazol-2-yl]-4-fluoro-anilino)propanamide], with 26 nM.

Broadly, the IC50 is the concentration needed to halve the response being measured.
